Assays:
[1] = biological target: Serine/threonine-protein kinase TNNI3K (Homo sapiens) (UniProt Q59H18); details: Compound concentration 1000.0 nM
[2] = biological target: Serine/threonine-protein kinase RIO2 (Homo sapiens) (UniProt Q9BVS4); details: Compound concentration 1000.0 nM
[3] = biological target: Serine/threonine-protein kinase PLK2 (Homo sapiens) (UniProt Q9NYY3); details: Compound concentration 1000.0 nM
[4] = biological target: High affinity nerve growth factor receptor (Homo sapiens) (UniProt P04629); details: Compound concentration 1000.0 nM
[5] = biological target: Insulin receptor (Homo sapiens) (UniProt P06213); details: Compound concentration 1000.0 nM
Insulin receptor (Homo sapiens), sequence (P06213 28-758 limits assumed): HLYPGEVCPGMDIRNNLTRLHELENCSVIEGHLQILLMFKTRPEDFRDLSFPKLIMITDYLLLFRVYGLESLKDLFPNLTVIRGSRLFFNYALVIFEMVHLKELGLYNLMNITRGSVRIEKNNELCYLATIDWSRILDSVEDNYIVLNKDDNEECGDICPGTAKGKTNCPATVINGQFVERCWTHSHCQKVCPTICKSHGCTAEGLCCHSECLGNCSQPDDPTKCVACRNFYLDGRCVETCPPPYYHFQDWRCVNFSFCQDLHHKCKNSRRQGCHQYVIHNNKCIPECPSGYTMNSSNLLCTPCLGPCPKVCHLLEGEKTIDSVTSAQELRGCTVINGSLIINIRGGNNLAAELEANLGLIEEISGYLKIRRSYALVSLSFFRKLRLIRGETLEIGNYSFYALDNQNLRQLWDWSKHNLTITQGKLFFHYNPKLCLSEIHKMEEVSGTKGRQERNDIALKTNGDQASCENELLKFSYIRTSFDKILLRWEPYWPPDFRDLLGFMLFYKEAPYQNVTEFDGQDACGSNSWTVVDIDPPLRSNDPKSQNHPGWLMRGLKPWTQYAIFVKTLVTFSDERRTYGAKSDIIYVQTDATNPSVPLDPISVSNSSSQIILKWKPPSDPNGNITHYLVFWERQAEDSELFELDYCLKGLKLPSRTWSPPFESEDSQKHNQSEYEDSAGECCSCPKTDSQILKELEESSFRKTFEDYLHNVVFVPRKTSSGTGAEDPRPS
Insulin receptor (Homo sapiens), sequence (P06213 763-1382 limits assumed): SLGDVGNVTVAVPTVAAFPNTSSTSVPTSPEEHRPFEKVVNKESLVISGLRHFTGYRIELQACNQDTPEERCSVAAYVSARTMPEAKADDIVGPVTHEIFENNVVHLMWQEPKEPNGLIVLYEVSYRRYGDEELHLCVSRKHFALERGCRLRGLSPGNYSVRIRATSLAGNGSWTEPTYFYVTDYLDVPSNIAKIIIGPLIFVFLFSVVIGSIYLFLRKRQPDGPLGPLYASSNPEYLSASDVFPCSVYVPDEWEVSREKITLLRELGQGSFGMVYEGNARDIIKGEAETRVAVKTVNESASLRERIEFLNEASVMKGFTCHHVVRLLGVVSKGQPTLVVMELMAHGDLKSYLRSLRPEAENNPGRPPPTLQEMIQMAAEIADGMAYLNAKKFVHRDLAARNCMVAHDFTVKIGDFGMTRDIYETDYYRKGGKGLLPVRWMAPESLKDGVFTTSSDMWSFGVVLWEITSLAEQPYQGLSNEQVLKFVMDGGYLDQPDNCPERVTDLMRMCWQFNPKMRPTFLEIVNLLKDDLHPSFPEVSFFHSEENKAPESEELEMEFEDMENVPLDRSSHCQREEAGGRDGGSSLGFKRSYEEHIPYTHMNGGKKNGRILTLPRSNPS

[6] = biological target: Protein kinase C eta type (Homo sapiens) (UniProt P24723); details: Compound concentration 1000.0 nM
[7] = biological target: Membrane-associated tyrosine- and threonine-specific cdc2-inhibitory kinase (Homo sapiens) (UniProt Q99640); details: Compound concentration 1000.0 nM
[8] = system: Epidermal growth factor receptor (Homo sapiens), P00533 [UNDEFINED MUTATION]; details: Compound concentration 1000.0 nM
Epidermal growth factor receptor (Homo sapiens), P00533 [UNDEFINED MUTATION], sequence (P00533 whole entry, looked up, change not shown): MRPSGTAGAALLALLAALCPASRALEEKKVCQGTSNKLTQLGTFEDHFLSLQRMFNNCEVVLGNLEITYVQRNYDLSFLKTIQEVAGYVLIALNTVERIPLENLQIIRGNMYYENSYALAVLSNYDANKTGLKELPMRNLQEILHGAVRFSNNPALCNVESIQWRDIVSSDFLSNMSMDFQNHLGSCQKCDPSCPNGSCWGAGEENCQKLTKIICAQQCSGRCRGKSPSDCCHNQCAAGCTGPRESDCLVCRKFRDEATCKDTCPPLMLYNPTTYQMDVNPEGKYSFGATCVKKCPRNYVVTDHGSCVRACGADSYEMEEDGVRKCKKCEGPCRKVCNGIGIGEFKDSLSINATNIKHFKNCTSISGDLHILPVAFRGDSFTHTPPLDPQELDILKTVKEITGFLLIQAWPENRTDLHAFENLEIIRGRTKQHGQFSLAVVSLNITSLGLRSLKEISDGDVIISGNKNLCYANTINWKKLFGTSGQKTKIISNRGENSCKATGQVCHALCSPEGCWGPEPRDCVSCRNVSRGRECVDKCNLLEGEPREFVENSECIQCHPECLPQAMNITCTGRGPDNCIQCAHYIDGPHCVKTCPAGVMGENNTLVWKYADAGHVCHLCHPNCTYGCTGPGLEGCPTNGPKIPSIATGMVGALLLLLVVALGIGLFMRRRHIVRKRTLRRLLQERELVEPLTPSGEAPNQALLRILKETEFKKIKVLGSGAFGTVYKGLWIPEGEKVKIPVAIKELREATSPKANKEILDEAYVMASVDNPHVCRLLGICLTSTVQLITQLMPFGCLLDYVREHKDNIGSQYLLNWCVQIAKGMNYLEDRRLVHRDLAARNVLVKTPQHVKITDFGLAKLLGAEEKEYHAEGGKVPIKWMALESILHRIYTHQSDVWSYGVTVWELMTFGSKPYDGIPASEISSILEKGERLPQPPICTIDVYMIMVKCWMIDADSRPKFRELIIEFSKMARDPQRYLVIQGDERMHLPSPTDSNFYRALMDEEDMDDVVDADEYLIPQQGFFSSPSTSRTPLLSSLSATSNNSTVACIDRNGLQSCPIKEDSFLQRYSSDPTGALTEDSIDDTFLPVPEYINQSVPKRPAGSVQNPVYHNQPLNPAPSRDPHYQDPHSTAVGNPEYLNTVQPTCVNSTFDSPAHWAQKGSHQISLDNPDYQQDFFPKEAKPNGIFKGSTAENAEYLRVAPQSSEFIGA

[9] = system: Epidermal growth factor receptor (Homo sapiens), P00533 [UNDEFINED MUTATION]; details: Compound concentration 1000.0 nM; remark: listed apart in the source
[10] = biological target: Serine/threonine-protein kinase MARK1 (Homo sapiens) (UniProt Q9P0L2); details: Compound concentration 1000.0 nM
[11] = biological target: 5-hydroxytryptamine receptor 2A (Homo sapiens) (UniProt P28223); details: Compound concentration 10.0 uM
[12] = biological target: Serine/threonine-protein kinase ULK3 (Homo sapiens) (UniProt Q6PHR2); details: Compound concentration 1000.0 nM
[13] = biological target: Myosin light chain kinase, smooth muscle (Homo sapiens) (UniProt Q15746); details: Compound concentration 1000.0 nM
[14] = biological target: Atypical kinase COQ8B, mitochondrial (Homo sapiens) (UniProt Q96D53); details: Compound concentration 1000.0 nM
[15] = biological target: Bone morphogenetic protein receptor type-1B (Homo sapiens) (UniProt O00238); details: Compound concentration 1000.0 nM
[16] = biological target: Vascular endothelial growth factor receptor 1 (Homo sapiens) (UniProt P17948); details: Compound concentration 1000.0 nM
[17] = biological target: Phosphatidylinositol 3-kinase catalytic subunit type 3 (Homo sapiens) (UniProt Q8NEB9); details: Compound concentration 1000.0 nM
[18] = system: ALK tyrosine kinase receptor (Homo sapiens), Q9UM73 [L1196M]; details: Compound concentration 1000.0 nM
[19] = biological target: Tyrosine-protein kinase HCK (Homo sapiens) (UniProt P08631); details: Compound concentration 1000.0 nM
[20] = biological target: Activin receptor type-1B (Homo sapiens) (UniProt P36896); details: Compound concentration 1000.0 nM
[21] = biological target: Mitogen-activated protein kinase kinase kinase 11 (Homo sapiens) (UniProt Q16584); details: Compound concentration 1000.0 nM
[22] = biological target: 5-hydroxytryptamine receptor 1D (Homo sapiens) (UniProt P28221); details: Compound concentration 10.0 uM
[23] = biological target: Muscle, skeletal receptor tyrosine-protein kinase (Homo sapiens) (UniProt O15146); details: Compound concentration 1000.0 nM
[24] = biological target: Phosphatidylinositol 4,5-bisphosphate 3-kinase catalytic subunit delta isoform (Homo sapiens) (UniProt O00329); details: Compound concentration 1000.0 nM
[25] = biological target: Serine/threonine-protein kinase Nek3 (Homo sapiens) (UniProt P51956); details: Compound concentration 1000.0 nM
[26] = system: Mast/stem cell growth factor receptor Kit (Homo sapiens), P10721 [L576P]; details: Compound concentration 1000.0 nM
[27] = biological target: Dual specificity mitogen-activated protein kinase kinase 6 (Homo sapiens) (UniProt P52564); details: Compound concentration 1000.0 nM
Dual specificity mitogen-activated protein kinase kinase 6 (Homo sapiens), sequence (P52564 whole entry): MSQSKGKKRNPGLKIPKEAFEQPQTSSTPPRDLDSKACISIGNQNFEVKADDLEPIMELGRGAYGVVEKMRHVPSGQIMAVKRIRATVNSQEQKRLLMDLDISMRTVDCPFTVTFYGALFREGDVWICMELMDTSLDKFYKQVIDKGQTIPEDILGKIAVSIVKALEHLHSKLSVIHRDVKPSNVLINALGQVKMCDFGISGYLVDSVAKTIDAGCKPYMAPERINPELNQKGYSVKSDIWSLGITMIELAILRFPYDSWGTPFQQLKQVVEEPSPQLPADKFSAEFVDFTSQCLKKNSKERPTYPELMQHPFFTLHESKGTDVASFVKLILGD

[28] = system: Tyrosine-protein kinase ABL1 (Homo sapiens), P00519 [E255K]; details: Compound concentration 1000.0 nM
[29] = biological target: Macrophage-stimulating protein receptor (Homo sapiens) (UniProt Q04912); details: Compound concentration 1000.0 nM
[30] = biological target: Serine/threonine-protein kinase ULK1 (Homo sapiens) (UniProt O75385); details: Compound concentration 1000.0 nM
[31] = biological target: Casein kinase I isoform gamma-2 (Homo sapiens) (UniProt P78368); details: Compound concentration 1000.0 nM
[32] = biological target: Serine/threonine-protein kinase RIO1 (Homo sapiens) (UniProt Q9BRS2); details: Compound concentration 1000.0 nM
[33] = biological target: Insulin-like growth factor 1 receptor (Homo sapiens) (UniProt P08069); details: Compound concentration 1000.0 nM
[34] = biological target: Tyrosine-protein kinase Blk (Homo sapiens) (UniProt P51451); details: Compound concentration 1000.0 nM
[35] = biological target: Cyclin-dependent kinase 7 (Homo sapiens) (UniProt P50613); details: Compound concentration 1000.0 nM
Cyclin-dependent kinase 7 (Homo sapiens), sequence (P50613 whole entry): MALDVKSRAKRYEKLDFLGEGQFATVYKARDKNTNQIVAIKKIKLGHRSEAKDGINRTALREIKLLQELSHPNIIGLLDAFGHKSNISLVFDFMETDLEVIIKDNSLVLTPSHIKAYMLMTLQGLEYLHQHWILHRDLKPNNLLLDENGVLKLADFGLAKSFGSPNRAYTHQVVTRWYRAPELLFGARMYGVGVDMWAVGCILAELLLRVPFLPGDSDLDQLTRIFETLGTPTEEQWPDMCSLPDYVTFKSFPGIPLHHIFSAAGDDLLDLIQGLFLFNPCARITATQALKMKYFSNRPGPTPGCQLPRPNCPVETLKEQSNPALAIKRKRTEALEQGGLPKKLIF

[36] = biological target: Alpha-2A adrenergic receptor (Homo sapiens) (UniProt P08913); details: Compound concentration 10.0 uM
Alpha-2A adrenergic receptor (Homo sapiens), sequence (P08913 whole entry): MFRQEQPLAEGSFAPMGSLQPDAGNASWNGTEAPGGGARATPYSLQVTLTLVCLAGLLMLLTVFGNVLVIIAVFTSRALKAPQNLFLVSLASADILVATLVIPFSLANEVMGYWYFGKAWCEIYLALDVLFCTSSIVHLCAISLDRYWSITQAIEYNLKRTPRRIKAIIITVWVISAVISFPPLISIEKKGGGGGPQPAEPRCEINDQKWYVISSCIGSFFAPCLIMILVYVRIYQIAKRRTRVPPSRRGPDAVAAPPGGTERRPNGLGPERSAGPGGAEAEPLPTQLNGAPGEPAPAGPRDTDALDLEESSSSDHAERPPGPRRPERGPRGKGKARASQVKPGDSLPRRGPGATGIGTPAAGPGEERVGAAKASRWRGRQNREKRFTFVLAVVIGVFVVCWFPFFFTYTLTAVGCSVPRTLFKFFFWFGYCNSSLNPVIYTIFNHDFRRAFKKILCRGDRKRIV

[37] = biological target: Citron Rho-interacting kinase (Homo sapiens) (UniProt O14578); details: Compound concentration 1000.0 nM
[38] = biological target: Serine/threonine-protein kinase N1 (Homo sapiens) (UniProt Q16512); details: Compound concentration 1000.0 nM
[39] = biological target: Bone morphogenetic protein receptor type-1A (Homo sapiens) (UniProt P36894); details: Compound concentration 1000.0 nM
Bone morphogenetic protein receptor type-1A (Homo sapiens), sequence (P36894 whole entry): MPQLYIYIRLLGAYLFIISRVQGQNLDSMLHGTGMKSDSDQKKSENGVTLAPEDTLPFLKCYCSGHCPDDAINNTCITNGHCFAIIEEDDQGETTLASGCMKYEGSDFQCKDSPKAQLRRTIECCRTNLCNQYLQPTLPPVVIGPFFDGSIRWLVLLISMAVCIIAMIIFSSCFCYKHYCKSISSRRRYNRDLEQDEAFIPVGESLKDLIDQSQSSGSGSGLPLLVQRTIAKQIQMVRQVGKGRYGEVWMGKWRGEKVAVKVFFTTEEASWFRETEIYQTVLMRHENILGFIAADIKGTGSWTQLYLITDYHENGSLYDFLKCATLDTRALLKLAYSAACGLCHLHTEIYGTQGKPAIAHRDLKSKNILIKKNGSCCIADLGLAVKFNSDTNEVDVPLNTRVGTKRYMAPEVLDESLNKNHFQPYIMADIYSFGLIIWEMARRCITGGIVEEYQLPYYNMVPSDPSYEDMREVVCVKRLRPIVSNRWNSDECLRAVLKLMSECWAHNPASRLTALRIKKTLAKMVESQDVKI

[40] = biological target: Mitogen-activated protein kinase 14 (Homo sapiens) (UniProt Q16539); details: Compound concentration 1000.0 nM
[41] = biological target: Phosphatidylinositol 4,5-bisphosphate 3-kinase catalytic subunit alpha isoform (Homo sapiens) (UniProt P42336); details: Compound concentration 1000.0 nM
[42] = biological target: G protein-coupled receptor kinase 4 (Homo sapiens) (UniProt P32298); details: Compound concentration 1000.0 nM
[43] = biological target: Histamine H1 receptor (Homo sapiens) (UniProt P35367); details: Compound concentration 10.0 uM
[44] = biological target: Serine/threonine-protein kinase PRP4 homolog (Homo sapiens) (UniProt Q13523); details: Compound concentration 1000.0 nM
[45] = biological target: STE20/SPS1-related proline-alanine-rich protein kinase (Homo sapiens) (UniProt Q9UEW8); details: Compound concentration 1000.0 nM

Serine/threonine-protein kinase RIO2 (Homo sapiens), sequence (Q9BVS4 whole entry, looked up): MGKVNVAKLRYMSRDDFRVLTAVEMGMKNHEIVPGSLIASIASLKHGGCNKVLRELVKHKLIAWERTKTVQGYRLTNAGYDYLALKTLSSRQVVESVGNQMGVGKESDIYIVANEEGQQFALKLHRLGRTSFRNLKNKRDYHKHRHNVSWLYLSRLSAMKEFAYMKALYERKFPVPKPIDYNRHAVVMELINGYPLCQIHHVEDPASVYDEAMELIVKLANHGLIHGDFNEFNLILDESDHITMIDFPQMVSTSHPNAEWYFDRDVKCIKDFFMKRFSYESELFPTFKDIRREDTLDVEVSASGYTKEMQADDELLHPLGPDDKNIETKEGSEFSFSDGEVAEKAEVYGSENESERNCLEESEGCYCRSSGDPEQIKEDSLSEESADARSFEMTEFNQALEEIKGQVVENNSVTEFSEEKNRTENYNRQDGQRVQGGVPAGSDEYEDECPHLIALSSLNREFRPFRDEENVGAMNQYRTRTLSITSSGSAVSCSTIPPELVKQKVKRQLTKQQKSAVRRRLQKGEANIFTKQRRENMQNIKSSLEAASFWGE

`COc1ccc2c(O[C@@H]3C[C@H]4C(=O)N[C@]5(C(=O)O)CC5/C=C\CCCCC[C@H](NC(=O)OC5CCCC5)C(=O)N4C3)cc(-c3csc(NC(=O)C(C)C)n3)nc2c1C` (stereo not given in full) [BI 1230] was tested, and the residual activity [1] was 100%, the residual activity [2] was 100% and the residual activity [3] was 69%. It also gave a residual activity [4] of 82%, a residual activity [5] of 94% and a residual activity [6] of 100%. It also gave a residual activity [7] of 100%, a residual activity [8] of 62% and a residual activity [9] of 81%. The residual activity [10] was 100%, the inhibition [11] was 11.4% and the residual activity [12] was 93%. It also gave a residual activity [13] of 78%, a residual activity [14] of 100% and a residual activity [15] of 77%. The residual activity [16] was 95%, the residual activity [17] was 100% and the residual activity [18] was 97%. For the same compound, the residual activity [19] was 100%, the residual activity [20] was 100% and the residual activity [21] was 100%. It also gave an inhibition [22] of 32.5%, a residual activity [23] of 91% and a residual activity [24] of 100%. For the same compound, the residual activity [25] was 76%, the residual activity [26] was 90% and the residual activity [27] was 100%. The residual activity [28] was 80%, the residual activity [29] was 100% and the residual activity [30] was 93%. The residual activity [31] was 90%, the residual activity [32] was 93% and the residual activity [33] was 98%. It also gave a residual activity [34] of 97%, a residual activity [35] of 62% and an inhibition [36] of 15.3%. It also gave a residual activity [37] of 99%, a residual activity [38] of 100% and a residual activity [39] of 100%. For the same compound, the residual activity [40] was 100%, the residual activity [41] was 75% and the residual activity [42] was 67%. It also gave an inhibition [43] of 31.5%, a residual activity [44] of 93% and a residual activity [45] of 100%.
`O=C(N[C@H]1CCCCC/C=C\C2C[C@@]2(C(=O)O)NC(=O)[C@@H]2C[C@@H](Oc3ccncc3)CN2C1=O)OC1CCCC1` (stereo not given in full) [BI 1675] showed a residual activity [1] of 100%, a residual activity [2] of 100% and a residual activity [3] of 93%. It also gave a residual activity [4] of 100%, a residual activity [5] of 100% and a residual activity [6] of 91%. It also gave a residual activity [7] of 97%, a residual activity [8] of 49% and a residual activity [9] of 85%. For the same compound, the residual activity [10] was 100%, the inhibition [11] was -7.7% and the residual activity [12] was 82%. The residual activity [13] was 100%, the residual activity [14] was 100% and the residual activity [15] was 95%. It also gave a residual activity [16] of 100%, a residual activity [17] of 100% and a residual activity [18] of 100%. It also gave a residual activity [19] of 100%, a residual activity [20] of 100% and a residual activity [21] of 97%. The inhibition [22] was 3.22%, the residual activity [23] was 100% and the residual activity [24] was 92%. For the same compound, the residual activity [25] was 100%, the residual activity [26] was 91% and the residual activity [27] was 94%. It also gave a residual activity [28] of 80%, a residual activity [29] of 97% and a residual activity [30] of 100%. It also gave a residual activity [31] of 63%, a residual activity [32] of 63% and a residual activity [33] of 96%. It also gave a residual activity [34] of 63%, a residual activity [35] of 71% and an inhibition [36] of 0.78%. It also gave a residual activity [37] of 89%, a residual activity [38] of 100% and a residual activity [39] of 100%. For the same compound, the residual activity [40] was 94%, the residual activity [41] was 98% and the residual activity [42] was 80%. It also gave an inhibition [43] of 23.9%, a residual activity [44] of 92% and a residual activity [45] of 100%.

Source: ChEMBL document CHEMBL4507284, “Data for DCP probe BI-1230” (2021)
